According to US8785468B2, “Phenylalanine amide derivatives useful for treating insulin-related diseases and conditions” (Amgen Inc., priority 2009, dated 2014):
Where a name gives a salt, the structure may show the parent alone.

Target: T1, human receptor found in pancreatic islet cells (Homo sapiens, UniProt Q7Z601)
T1 sequence (Q7Z601 1-462): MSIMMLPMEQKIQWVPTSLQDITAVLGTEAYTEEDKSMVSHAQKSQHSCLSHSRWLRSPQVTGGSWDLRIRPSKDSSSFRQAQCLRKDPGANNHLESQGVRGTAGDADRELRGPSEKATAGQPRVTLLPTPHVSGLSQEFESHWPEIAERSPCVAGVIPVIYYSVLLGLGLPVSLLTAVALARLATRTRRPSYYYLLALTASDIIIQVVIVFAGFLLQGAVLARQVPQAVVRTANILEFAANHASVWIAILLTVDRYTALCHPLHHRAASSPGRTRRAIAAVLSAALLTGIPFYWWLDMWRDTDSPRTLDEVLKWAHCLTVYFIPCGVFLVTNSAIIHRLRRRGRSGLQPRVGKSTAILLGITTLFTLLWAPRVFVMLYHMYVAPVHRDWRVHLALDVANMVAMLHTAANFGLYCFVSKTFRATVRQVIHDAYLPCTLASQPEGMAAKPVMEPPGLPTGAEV
Assay: Activation of intracellular IP3 signaling in transfected cells (Activation Assay)
Format: cell-based
Details: calculated from IP3 concentration measurements in cells transfected with the human receptor
Procedure: Table 12 provides exemplary compounds that were prepared and assessed, following protocols known to those of skilled in the art, for activation of intracellular inositol trisphosphate (IP3) signaling pathways that lead to elevation of intracellular calcium concentration. EC50 values provided in Table 12 were calculated from IP3 concentration measurements in cells transfected with a human receptor found in pancreatic islet cells, inter alia.

Structure (SMILES)	EC50 [nM]
O=C(Nc1cc(-c2ccncc2)no1)[C@H](Cc1ccc(Cl)cc1)NCc1cscn1 [Example 3.1, (S)-3-(4-Chlorophenyl)-N-(3-(pyridin-4-yl)isoxazol-5-yl)-2-(thiazol-4-ylmethylamino)propanamide]	100 to 1000
O=C(Nc1cc(-c2ccncc2)no1)[C@H](Cc1ccccc1)NCc1cscn1 [Example 3.3, (S)-3-Phenyl-N-(3-(pyridin-4-yl)isoxazol-5-yl)-2-(thiazol-4-ylmethylamino)propanamide]	100 to 1000
O=C(Nc1cccc(-c2cn[nH]c2)c1)[C@H](Cc1ccccc1)NCc1cscn1 [Example 33, (2S)—N-(3-(1H-Pyrazol-4-yl)phenyl)-3-phenyl-2-(thiazol-4-ylmethylamino)propanamide]	100 to 1000
COc1ncc(-c2ccn[nH]2)cc1NC(=O)[C@H](Cc1ccccc1)NC1(c2ccccn2)CC1 [Example 14.1, (2S)—N-(2-methoxy-5-(1H-pyrazol-5-yl)pyridin-3-yl)-3-phenyl-2-(1-(pyridin-2-yl)cyclopropylamino)propanamide]	100 to 1000
O=C(Nc1nccc(-c2ccncc2)n1)[C@H](Cc1ccccc1)NCc1cscn1 [Example 10, (S)-3-phenyl-N-(4-(pyridin-4-yl)pyrimidin-2-yl)-2-(thiazol-4-ylmethylamino)propanamide]	100 to 1000
CN(C)CCNC(=O)c1cc(NC(=O)[C@H](Cc2ccccc2)NCc2cscn2)cc(-c2ccncc2)c1 [Example 74, (S)—N-(2-(dimethylamino)ethyl)-3-(3-phenyl-2-(thiazol-4-ylmethylamino)propanamido)-5-(pyridin-4-yl)benzamide bis trifluoroacetate salt]	100 to 1000
Cc1ncc(CN[C@@H](Cc2ccccc2)C(=O)Nc2cccc(-c3ccncc3)c2)s1 [Example 34.18, (S)-2-((2-Methylthiazol-5-yl)methylamino)-3-phenyl-N-(3-(pyridin-4-yl)phenyl)propanamide]	100 to 1000
Cc1cc(-c2ccc(OCCN(C)C)c(NC(=O)[C@H](Cc3ccccc3)NCc3cscn3)c2)ccn1 [Example 75, (2S)—N-(2-(2-(Dimethylamino)ethoxy)-5-(2-methylpyridin-4-yl)phenyl)-3-phenyl-2-(thiazol-4-ylmethylamino)propanamide trifluoroacetate]	100 to 1000
O=C(Nc1nnc(-c2ccncc2)[nH]1)[C@H](Cc1ccccc1)NCc1cscn1 [Example 2, (S)-3-Phenyl-N-(5-(pyridin-4-yl)-4H-1,2,4-triazol-3-yl)-2-(thiazol-4-ylmethylamino)propanamide]	1000 to 10000
O=C(Nc1cncc(-c2ccn[nH]2)c1)[C@H](Cc1ccccc1)NCc1cscn1 [Example 6, (2S)—N-(5-(1H-Pyrazol-5-yl)pyridin-3-yl)-3-phenyl-2-(thiazol-4-ylmethylamino)propanamide]	100 to 1000
COC(=O)c1cc(-c2ccncc2)cc2c1CCN2C(=O)[C@H](Cc1ccccc1)NCc1cscn1 [Example 54.8, TFA salt]	100 to 1000
COC(=O)c1cc(-c2ccncc2)cc2c1CCN2C(=O)[C@H](Cc1ccccc1)N[C@@H](C)c1ccccn1 [Example 54.2, Methyl 1-((S)-3-phenyl-2-((S)-1-(pyridin-2-yl)ethylamino)propanoyl)-6-(pyridin-4-yl)indoline-4-carboxylate TFA salt]	100 to 1000
C[C@H](N[C@@H](Cc1ccccc1)C(=O)Nc1nnc(-c2ccncc2)s1)c1ccccn1 [Example 1.2, (S)-3-phenyl-2-((S)-1-(pyridin-2-yl)ethylamino)-N-(5-(pyridin-4-yl)-1,3,4-thiadiazol-2-yl)propanamide]	100 to 1000
Cc1cc(-c2cc(NC(=O)[C@@H](N)Cc3ccc(Cl)cc3Cl)cc(C(=O)O)c2)ccn1 [Example 49.1, 3-((S)-2-Amino-3-(2,4-dichlorophenyl)propanamido)-5-(2-methylpyridin-4-yl)benzoic acid]	1000 to 10000
N[C@@H](Cc1ccccc1)C(=O)N1CCc2ccc(-c3ccn[nH]3)cc21 [Example 83, (2S)-1-(6-(1H-pyrazol-5-yl)indolin-1-yl)-2-amino-3-phenylpropan-1-one Ditrifluoroacetate]	1000 to 10000
Cc1cc(-c2ccc3c(c2)N(C(=O)[C@H](Cc2ccccc2)NCc2cscn2)CC3)ccn1 [Example 56, (2S)-1-(6-(2-Methylpyridin-4-yl)indolin-1-yl)-3-phenyl-2-(thiazol-4-ylmethylamino)propan-1-one]	50 to 100
COc1ncc(-c2ccnc(C)c2)cc1NC(=O)[C@@H](N)Cc1ccccc1 [Example 35.6, (2S)-2-Amino-N-(2-methoxy-5-(2-methylpyridin-4-yl)pyridin-3-yl)-3-phenylpropanamide]	1000 to 10000
CC(C)(C(=O)O)c1cc(NC(=O)[C@H](Cc2ccccc2)NC[C@H]2CCCO2)cc(-c2ccncc2)c1 [Example 63.2]	1000 to 10000
COc1ncc(-c2ccncc2)cc1NC(=O)[C@H](Cc1ccccc1)NC1(c2ncccn2)CC1 [Example 35.5, (S)—N-(2-Methoxy-5-(pyridin-4-yl)pyridin-3-yl)-3-phenyl-2-(1-(pyrimidin-2-yl)cyclopropylamino)propanamide]	50 to 100
COC(=O)c1cc(-c2ccncc2)cc2c1CCN2C(=O)[C@@H](N)Cc1ccccc1 [Example 54.1, (S)-Methyl 1-(2-amino-3-phenylpropanoyl)-6-(pyridin-4-yl)indoline-4-carboxylate]	100 to 1000
O=C(Nc1cnc(-c2ccncc2)s1)[C@H](Cc1ccccc1)NCc1cscn1 [Example 5.3, (S)-3-Phenyl-N-(2-(pyridin-4-yl)thiazol-5-yl)-2-(thiazol-4-ylmethylamino)-propanamide]	50 to 100

The remaining lines, values ahead:

EC50 [nM]	Structure (SMILES)
< 50	CNc1cc(-c2cc(NC(=O)[C@H](Cc3ccccc3)NCC(=O)O)n(C)n2)ccn1 [Example 23.9, 2-((S)-1-(1-Methyl-3-(2-(methylamino)pyridin-4-yl)-1H-pyrazol-5-ylamino)-1-oxo-3-phenylpropan-2-ylamino)acetic acid]
< 50	CCn1nc(-c2ccnc(NC)c2)cc1NC(=O)[C@H](Cc1ccc(F)cc1)NCc1ccc(F)cn1 [Example 31.3, (2S)—N-(1-Ethyl-3-(2-(methylamino)pyridin-4-yl)-1H-pyrazol-5-yl)-3-(4-fluorophenyl)-2-((5-fluoropyridin-2-yl)methylamino)propanamide]
50 to 100	Cc1cc(-c2cc(NC(=O)[C@H](Cc3ccccc3)NCc3ccccn3)cc(NS(C)(=O)=O)c2)ccn1 [Example 51.2, (2S)—N-(3-(2-Methylpyridin-4-yl)-5-(methylsulfonamido)phenyl)-3-phenyl-2-(pyridin-2-ylmethylamino)propanamide]
50 to 100	Cc1nnc(-c2cc(-c3ccncc3)cc3c2CCN3C(=O)[C@H](Cc2ccccc2)NCc2cscn2)[nH]1 [Example 69, (2S)-1-(4-(5-Methyl-4H-1,2,4-triazol-3-yl)-6-(pyridin-4-yl)indolin-1-yl)-3-phenyl-2-(thiazol-4-ylmethylamino)propan-1-one]
50 to 100	COC(=O)c1cc(-c2ccncc2)cc2c1CCN2C(=O)[C@H](Cc1ccccc1)NCc1cc[nH]n1 [Example 54.4, (S)-Methyl 1-(2-((1H-pyrazol-3-yl)methylamino)-3-phenylpropanoyl)-6-(pyridin-4-yl)indoline-4-carboxylate]
< 50	Cc1cc(-c2cnc(OCC(=O)OC(C)(C)C)c(NC(=O)[C@H](Cc3ccccc3)NCc3cscn3)c2)ccn1 [Example 78, tert-Butyl 2-(5-(2-methylpyridin-4-yl)-3-((S)-3-phenyl-2-(thiazol-4-ylmethylamino)propanamido)pyridin-2-yloxy)acetate]
50 to 100	COC(=O)c1cc(-c2ccncc2)cc2c1CCN2C(=O)[C@H](Cc1ccc(F)cc1)NCc1cc[nH]n1 [Example 54.6, (S)-Methyl 1-(2-((1H-pyrazol-3-yl)methylamino)-3-(4-fluorophenyl)propanoyl)-6-(pyridin-4-yl)indoline-4-carboxylate]
< 50	Cn1nc(-c2ccncc2)cc1NC(=O)[C@H](Cc1ccccc1)NCc1ccc(F)cn1 [Example 17.4, (S)-2-((5-Fluoropyridin-2-yl)methylamino)-N-(1-methyl-3-(pyridin-4-yl)-1H-pyrazol-5-yl)-3-phenylpropanamide]
< 50	CNc1cc(-c2cc(NC(=O)[C@H](Cc3ccc(F)cc3)NCc3cscn3)n(C)n2)ccn1 [Example 23.5]
< 50	CCn1nc(-c2ccnc(C)c2)cc1NC(=O)[C@H](Cc1ccc(F)cc1)NCc1cscn1 [Example 28, (2S)—N-(1-ethyl-3-(2-methylpyridin-4-yl)-1H-pyrazol-5-yl)-3-(4-fluorophenyl)-2-(thiazol-4-ylmethylamino)propanamide dihydrochloride]
< 50	CNc1cc(-c2cc(NC(=O)[C@H](Cc3ccccc3)NCc3cscn3)n(C)n2)ccn1 [Example 23.10, (2S)—N-(1-methyl-3-(2-(methylamino)pyridin-4-yl)-1H-pyrazol-5-yl)-3-phenyl-2-(thiazol-4-ylmethylamino)propanamide]
< 50	CNc1cc(-c2nnc(NC(=O)[C@H](Cc3ccccc3)NCc3cscn3)s2)ccn1 [Example 8.1]
< 50	CNc1cc(-c2cc(NC(=O)[C@H](Cc3ccc(F)cc3)NCc3c[nH]nn3)n(C)n2)ccn1 [Example 23.7, (2S)-2-((1H-1,2,3-triazol-4-yl)methylamino)-3-(4-fluorophenyl)-N-(1-methyl-3-(2-(methylamino)pyridin-4-yl)-1H-pyrazol-5-yl)propanamide]
